According to patent publication US12679801B2, “Amino lipid and preparation method and application thereof” (Shenzhen MagicRNA Biotechnology Co., Ltd., priority 2022, dated 2026):

The compounds below were run on BMDC primary cells (assay: Luc mRNA LNP transfection on BMDC primary cells (Embodiment 13, Table 3)). Conditions: 16 h, ONE-Glo Luciferase.
Type: cell-based, C57BL/6 mice
Procedure: Preparation method: the same as that described in Embodiment 7.
Animal preparation: 6-week-old female C57BL/6 mice with the body weight about 20 g were selected. The feeding environment was an SPF stage feeding room. Animal tests were strictly performed according to the guide of the national health institute and the animal ethics requirements.
(§1) Cell acquisition: C57BL/6 mice were killed through cervical dislocation, and were soaked for 5 min in 75% ethyl alcohol. Dissection was performed to obtain thigh and calf tibiae of the mice. Attached muscles were removed to expose sclerotin. Then, bone marrow in tibiae was blown out by using a 1 mL injector sucked with PBS. After the bone marrow was blown away, impurities were filtered away by a 50 μm filter screen. A red blood cell lysis buffer (3-4 mL) was added into an obtained filtrate. Then, after placement for 5 min, 800 g centrifugation was performed for 5 min to remove the supernatant. The obtained cells were placed into a 1640 culture medium (containing 10% fetal calf serum, 20 ng/mL GMCSF and 10 ng/ml IL4) to be resuspended, and were inoculated into a 6-well plate at an inoculation density of 100000 cells/ml culture medium. The materials were placed into a 37° C. cell incubator containing 5% CO2. Half liquid change was performed once every 2 days. Suspended cells and loose wall attached cells were collected on the seventh day, and were per well, and the volume of a culture medium was 100 μL.
(§2) Cell transfection: lipid nanoparticles coated with luciferase mRNA were added into a 96-well all-white ELISA plate laid with primary cells. The adding volume of the mRNA lipid nanoparticles in each well was controlled to be 10 μL. Then, the materials were put into a 37° C. incubator containing 5% CO2 for 16 h.
Transfection efficiency detection: 20 μL of a substrate ONE-Glo™ Luciferase was added into each well of a 96-well all-white ELISA plate. After 1 min, detection was performed by a multifunctional or multimode microplate reader.

Structure (SMILES) | Luciferase luminescence intensity
CCCCCCCCCCCC(COC(=O)C(CCCCCC)CCCCCCCC)OC(=O)CCCN(C)C (stereo not drawn) [E8C71A9] | 8.8E+ 04
CCCCCCCCCCCCCCC(COC(=O)C(C)(C)CCCCCCCC)OC(=O)CCCCN(C)C (stereo not drawn) [E11C58A11] | 2.3E+ 04
CCCCCCCCCCCCC(COC(=O)C(C)(C)CCCCCCCCCC)OC(=O)CCCN(C)C (stereo not drawn) [E9C66A9] | 2.3E+ 04
CCCCCCCCCCCCCCC(C)C(=O)OCC(CCCCCCCC)OC(=O)CCCCN(C)C (stereo not drawn) [E5C74A11] | 7.7E+ 03
CCCCCCCCCCCCCCC(COC(=O)C(CCCCC)CCCCC)OC(=O)CCCCN(C)C (stereo not drawn) [E11C57A11] | 6.4E+ 04

These compounds were tested on BMDC primary cells (assay: Luc mRNA LNP transfection on BMDC primary cells (Embodiment 21, Table 9)). Conditions: 16 h, ONE-Glo Luciferase.
Type: cell-based, C57BL/6 mice
Procedure: Preparation method: the same as that in Embodiment 17.
Animal preparation: 6-week-old female C57BL/6 mice with the body weight about 20 g were selected. A feeding environment was an SPF stage feeding room. Animal tests were strictly performed according to the guide of the national health institute and the animal ethics requirements.
as §1, with “to remove a supernatant. The” for “to remove the supernatant. The”, “and 10 ng/mL IL4) to” for “and 10 ng/ml IL4) to”, “and were inoculated to a 96-well all-white ELISA plate at the inoculation density of 20000 cells per well,” for “and were per well,”
as §2, with “white” for “all-white”
Transfection efficiency detection: 20 μL of a substrate ONE-Glo™ Luciferase was added into each well of a 96-well all-white ELISA plate, and after 1 min, detection was performed by a multifunctional or multimode microplate reader.

Structure (SMILES) | Luciferase luminescence intensity
CCCCCCCCCCCC(COC(=O)CC(CCCCCCC)CCCCCCC)OC(=O)CCCCN(C)C (stereo not drawn) [E8C128A11] | 3.5E+04
CCCCCCCCCCC(CCCC)C(=O)OCC(CCCCCCCC)OC(=O)CCCCN(C)C (stereo not drawn) [E5C104A11] | 4.0E+04
CCCCCCCCC(COC(=O)CC(CCCCCCC)CCCCCCC)OC(=O)CCCCN(C)C (stereo not drawn) [E5C128A11] | 4.3E+04
CCCCCCCCCCC(COC(=O)CC(CCCCC)CCCCCCCCC)OC(=O)CCCN(C)C (stereo not drawn) [E7C123A9] | 4.3E+04
CCCCCCCCCCCCCCC(COC(=O)CC(CCCCCCC)CCCCCCC)OC(=O)CCCN(C)C (stereo not drawn) [E11C128A9] | 3.9E+04
CCCCCCCCCCCCCC(COC(=O)C(CCCCCCCC)CCCCCCCC)OC(=O)CCCCN(C)C (stereo not drawn) [E10C115A11] | 8.2E+04
CCCCCCCCCCC(CCCC)CC(=O)OCC(CCCCCCCC)OC(=O)CCCN(C)C (stereo not drawn) [E5C119A9] | 4.1E+04
CCCCCCCCCCC(COC(=O)CC(CCCCCCC)CCCCCCC)OC(=O)CCCN(C)C (stereo not drawn) [E7C128A9] | 3.5E+04
CCCCCCCCCCC(COC(=O)C(CCCCCCCC)CCCCCCCC)OC(=O)CCCN(C)C (stereo not drawn) [E7C115A9] | 5.6E+04
CCCCCCCCCCCCCC(COC(=O)C(CCCCC)CCCCCCCCC)OC(=O)CCCCN(C)C (stereo not drawn) [E10C109A11] | 3.5E+04
CCCCCCCCCCC(COC(=O)C(CCCCCCCCC)CCCCCCCCC)OC(=O)CCCCN(C)C (stereo not drawn) [E7C116A11] | 9.2E+04
CCCCCCCCCCCC(COC(=O)C(CCCCC)CCCCCCCCCCC)OC(=O)CCCN(C)C (stereo not drawn) [E8C111A9] | 4.6E+04
CCCCCCCCCCCCC(COC(=O)C(CCCCC)CCCCCCCCC)OC(=O)CCCN(C)C (stereo not drawn) [E9C109A9] | 3.6E+04
CCCCCCCCCCCCC(COC(=O)C(CCCCCCCC)CCCCCCCC)OC(=O)CCCCN(C)C (stereo not drawn) [E9C115A11] | 1.9E+05
CCCCCCCCCCCCCC(COC(=O)C(CCCCCCC)CCCCCCC)OC(=O)CCCN(C)C (stereo not drawn) [E10C114A9] | 4.3E+04
CCCCCCCCCCCCC(COC(=O)C(CCCCCCC)CCCCCCC)OC(=O)CCCN(C)C (stereo not drawn) [E9C114A9] | 9.1E+04
CCCCCCCCCCCCCCC(COC(=O)C(CCCCC)CCCCCCCCC)OC(=O)CCCCN(C)C (stereo not drawn) [E11C109A11] | 4.8E+04
CCCCCCCCCC(CCCCC)C(=O)OCC(CCCCCCCC)OC(=O)CCCN(C)C (stereo not drawn) [E5C109A9] | 3.9E+03
CCCCCCCCCCCCC(COC(=O)CC(CCCCCCC)CCCCCCC)OC(=O)CCCN(C)C (stereo not drawn) [E9C128A9] | 3.7E+04
CCCCCCCCCCCC(COC(=O)C(CCCCCCCCC)CCCCCCCCC)OC(=O)CCCCN(C)C (stereo not drawn) [E8C116A11] | 5.0E+04
CCCCCCCCCCCCC(COC(=O)C(CCCCCCC)CCCCCCC)OC(=O)CCCCN(C)C (stereo not drawn) [E9C114A11] | 8.5E+04
CCCCCCCCCCCC(COC(=O)C(CCCCC)CCCCCCCCC)OC(=O)CCCN(C)C (stereo not drawn) [E8C109A9] | 4.8E+04
CCCCCCCCCCCCCCC(COC(=O)C(CCCCCCCC)CCCCCCCC)OC(=O)CCCCN(C)C (stereo not drawn) [E11C115A11] | 6.3E+04
CCCCCCCCCCCCCCC(COC(=O)C(CCCCC)CCCCCCCCC)OC(=O)CCCN(C)C (stereo not drawn) [E11C109A9] | 4.3E+04
CCCCCCCCCCCCCC(COC(=O)CC(CCCCCCC)CCCCCCC)OC(=O)CCCCN(C)C (stereo not drawn) [E10C128A11] | 4.7E+04

Structure (SMILES) | Luciferase luminescence intensity
CCCCCCCCCCCCCC(COC(=O)C(CCCC)CCCCCCCCCCCC)OC(=O)CCCN(C)C (stereo not drawn) [E10C106A9] | 4.2E+04
CCCCCCCCCCCCCCC(COC(=O)C(CCCCCCC)CCCCCCC)OC(=O)CCCN(C)C (stereo not drawn) [E11C114A9] | 4.5E+04
CCCCCCCCCCCCC(COC(=O)C(CCCCC)CCCCCCCCCCC)OC(=O)CCCCN(C)C (stereo not drawn) [E9C111A11] | 3.9E+04
CCCCCCCCCCCCC(COC(=O)C(CCCCC)CCCCCCCCC)OC(=O)CCCCN(C)C (stereo not drawn) [E9C109A11] | 3.6E+04
CCCCCCCCCCCCCC(COC(=O)C(CCCCCCCC)CCCCCCCC)OC(=O)CCCN(C)C (stereo not drawn) [E10C115A9] | 4.4E+04
CCCCCCCCCCC(COC(=O)C(CCCCCCC)CCCCCCC)OC(=O)CCCCN(C)C (stereo not drawn) [E7C114A11] | 9.9E+04
CCCCCCCCC(COC(=O)C(CCCCCCCC)CCCCCCCC)OC(=O)CCCN(C)C (stereo not drawn) [E5C115A9] | 2.7E+04
CCCCCCCCC(COC(=O)CC(CCCCCCC)CCCCCCC)OC(=O)CCCN(C)C (stereo not drawn) [E5C128A9] | 3.9E+04
CCCCCCCCCCCCCCC(COC(=O)CC(CCCCCCC)CCCCCCC)OC(=O)CCCCN(C)C (stereo not drawn) [E11C128A11] | 4.2E+04
CCCCCCCCCCCC(COC(=O)C(CCCCCCC)CCCCCCC)OC(=O)CCCN(C)C (stereo not drawn) [E8C114A9] | 6.8E+04
CCCCCCCCCCCC(COC(=O)C(CCCCCCC)CCCCCCC)OC(=O)CCCCN(C)C (stereo not drawn) [E8C114A11] | 1.3E+05
CCCCCCCCCCCCCCC(COC(=O)CC(CCCCCC)CCCCCCCC)OC(=O)CCCN(C)C (stereo not drawn) [E11C126A9] | 3.6E+04
CCCCCCCCCCCCC(COC(=O)CC(CCCCCCC)CCCCCCC)OC(=O)CCCCN(C)C (stereo not drawn) [E9C128A11] | 3.5E+04
CCCCCCCCC(COC(=O)C(CCCCCCC)CCCCCCC)OC(=O)CCCN(C)C (stereo not drawn) [E5C114A9] | 8.6E+03
CCCCCCCCCCCCC(COC(=O)C(CCCC)CCCCCCCCCC)OC(=O)CCCN(C)C (stereo not drawn) [E9C104A9] | 3.6E+04
CCCCCCCCCCCC(COC(=O)C(CCCC)CCCCCCCCCC)OC(=O)CCCN(C)C (stereo not drawn) [E8C104A9] | 3.7E+04
CCCCCCCCC(COC(=O)C(CCCCCCC)CCCCCCC)OC(=O)CCCCN(C)C (stereo not drawn) [E5C114A11] | 4.6E+04
CCCCCCCCCCC(COC(=O)CC(CCCCCCC)CCCCCCC)OC(=O)CCCCN(C)C (stereo not drawn) [E7C128A11] | 3.6E+04
CCCCCCCCCCCC(COC(=O)C(CCCCCCCC)CCCCCCCC)OC(=O)CCCN(C)C (stereo not drawn) [E8C115A9] | 6.0E+04
CCCCCCCCCCC(COC(=O)CC(CCCCCC)CCCCCCCC)OC(=O)CCCCN(C)C (stereo not drawn) [E7C126A11] | 3.9E+04
CCCCCCCCCC(CCCCCCCCC)C(=O)OCC(CCCCCC)OC(=O)CCCCN(C)C (stereo not drawn) [E3C116A11] | 4.4E+04
CCCCCCCCCCC(COC(=O)C(CCCC)CCCCCCCCCC)OC(=O)CCCN(C)C (stereo not drawn) [E7C104A9] | 3.9E+04
CCCCCCCCCCC(COC(=O)C(CCCCCCC)CCCCCCC)OC(=O)CCCN(C)C (stereo not drawn) [E7C114A9, 2-((4-(Dimethylamino)Butanoyl)Oxy) Dodecyl 2-Heptylnonanoate] | 6.6E+04
CCCCCCCCCCCCC(COC(=O)C(CCCC)CCCCCCCCCC)OC(=O)CCCCN(C)C (stereo not drawn) [E9C104A11] | 4.4E+04
